Among the data in patent US5495000A, “Anticoagulant peptides” (Merrell Pharmaceuticals Inc., priority 1995, dated 1996) are IC50 values, retold here.

*1 amine or outer side, *2 acyl side, *3 side chain or, on linkers, in order; H or OH if unused. Where a SMILES comes first, the peptide text is derived from it. [ ]: non-standard residue; d: D form. Cha = N[C@@H](CC1CCCCC1)C(=O)O; Suc = O=C(CCC(=O)[*:2])[*:1]

The assay relates to Fibrin-Clot. The assay can be described thus: Fibrin-Clot Inhibition. The class given is biochemical.
`CC[C@H](C)[C@H](NC(=O)[C@H](CC(=O)O)NC(=O)[C@H](CC(=O)O)NC(=O)[C@H](CC(C)C)NC(=O)[C@@H]1CCCN1C(=O)[C@@H](Cc1ccccc1)NC(=O)[C@H](CCC(=O)O)NC(=O)[C@H](CCC(=O)O)NC(=O)[C@H](Cc1ccccc1)NC(=O)CCC(=O)O)C(=O)N[C@@H](CCC(=O)O)C(=O)N[C@@H](CCC(N)=O)C(=O)O` [Example 6, Suc-Phe-Glu-Glu-phe-Pro-Leu-Asp-Asp-Ile-Glu-Gln-OH] (Suc-FEE[dF]PLDDIEQ-OH) came in with an IC50 of 2300 nM.

As for `CC[C@H](C)[C@H](NC(=O)[C@H](CC(=O)O)NC(=O)[C@H](CC(=O)O)NC(=O)[C@H](CC(C)C)NC(=O)[C@H](CO)NC(=O)[C@H](Cc1ccccc1)NC(=O)[C@@H]1CCCN1C(=O)[C@H](CCC(=O)O)NC(=O)[C@H](Cc1ccccc1)NC(=O)CCC(=O)O)C(=O)N[C@@H](CCC(=O)O)C(=O)N[C@@H](CCC(N)=O)C(=O)O` [Example 5, Suc-Phe-Glu-Pro-Phe-Ser-Leu-Asp-Asp-Ile-Glu-Gln-OH] (Suc-FEPFSLDDIEQ-OH), it took 1800 nM to reach half-maximal inhibition (IC50).

The compound `CC[C@H](C)[C@H](NC(=O)[C@H](CC(=O)O)NC(=O)[C@H](CC(=O)O)NC(=O)[C@H](CC(C)C)NC(=O)[C@H](CO)NC(=O)[C@H](Cc1ccccc1)NC(=O)[C@H](CCC(=O)O)NC(=O)[C@H](CCC(=O)O)NC(=O)[C@H](Cc1ccccc1)NC(=O)CCC(=O)O)C(=O)N[C@@H](CCC(=O)O)C(=O)N[C@@H](CCC(N)=O)C(=O)O` [Example 4, Suc-Phe-Glu-Glu-Phe-Ser-Leu-Asp-Asp-Ile-Glu-Gln-OH] (Suc-FEEFSLDDIEQ-OH) gave an IC50 of 2700 nM.

For `CC(C)C[C@H](NC(=O)[C@H](CO)NC(=O)[C@H](Cc1ccccc1)NC(=O)[C@H](CCC(=O)O)NC(=O)[C@H](CCC(=O)O)NC(=O)[C@H](Cc1ccccc1)NC(=O)CCC(=O)O)C(=O)N[C@@H](CC(=O)O)C(=O)N[C@@H](CC(=O)O)C(=O)N[C@@H](CC1CCCCC1)C(=O)N[C@@H](CCC(=O)O)C(=O)N[C@@H](CCC(N)=O)C(=O)O` [Example 7, Suc-Phe-Glu-Glu-Phe-Ser-Leu-Asp-Asp-Cha-Glu-Gln-OH] (Suc-FEEFSLDD[Cha]EQ-OH), it took 7100 nM to reach half-maximal inhibition (IC50).
